We go through one substance from US20120034608A1, “MICRORNA AS A BIOMARKER OF PANCREATIC ISLET BETA-CELL ENGAGEMENT” (Merck Sharp & Dohme Corp., priority 2009, published 2012).

The subject of the assay is C57/Bl6 mice. Briefly: plasma miRNA levels in lean mice after a single injection. Format: in vivo, mouse. As to conditions: C57/Bl6 mice (FIG. 5 legend). As for the experimental part:
The plasma levels of miR-132 and miR-212 were measured in lean mice treated with an oxyntomodulin (OXM) derivative (a long-acting GLP-1 receptor agonist disclosed in Published International Application No. WO2007/100535) before and then 24-hours and 48-hours after a single injection of the OXM derivative. Groups of 16 weeks old mice were dosed with 30 mpk OXM derivative (s.c.) or vehicle (3% mannitol, 75 mM NaCl, 20 mM sodium acetate, pH 5) and approximately 50 μL blood each were collected into EDTA tubes before and 24 hours and 48 hours post-dosing. All the blood samples were immediately placed on ice and plasma were prepared within one hour and stored at −80° C. RNA extraction and TAQMAN RT-PCR analysis were as described in Example 3. 50 μL aliquots of the plasma samples were thawed on ice and 2× Denaturing Solution (Ambion) was added. To allow for normalization for sample variations, three C. elegans miRNAs, cel-miR39, cel-miR54, and cel-miR-238, were added at a final concentration of 20, 200, and 2000 fM (sequence information according to miRBase). miR132, miR-212, and miR-375 expression levels were normalized to spiked-in cel-miR39.

Take GLP-1 (7-37) amide: the “plasma levels of miR-132” value is “increased” and the “plasma levels of miR-212” value is given as “increased”.
